Reference: ChEMBL document CHEMBL5321287, “Discovery, Synthesis, and Evaluation of Novel Dual Inhibitors of a Vascular Endothelial Growth Factor Receptor and Poly(ADP-Ribose) Polymerase for BRCA Wild-Type Breast Cancer Therapy” (J Med Chem, 2023)
Values belong to the compound of their own block, whether it stands above or below them. Activity calls are given as the source filed them. No cut-off for these calls is given here.

How the values were obtained:
MDA-MB-231 [1] = experiment: Antiproliferative activity against human MDA-MB-231 cells assessed as cell growth inhibition
[2] = target: T1, Poly [ADP-ribose] polymerase 1 (Homo sapiens, UniProt P09874); experiment: Inhibition of PARP1 (unknown origin)
[3] = target: Vascular endothelial growth factor receptor 2 (Homo sapiens, UniProt P35968); experiment: Inhibition of VEGFR2 (unknown origin) by Z'-Lyte kinase assay
MCF7 [4] = experiment: Antiproliferative activity against human MCF7 cells assessed as cell growth inhibition
[5] = target: T1, Poly [ADP-ribose] polymerase 1; details: MDA-MB-231, dose 50.0 mg/kg, route po, time 14.0 day
MDA-MB-436 [6] = experiment: cells; details: Homo sapiens
HCC1937 [7] = experiment: Antiproliferative activity against human HCC1937 cells assessed as cell growth inhibition
HUVEC = experiment: cells; details: Homo sapiens, 48 h
HCC1937 [8] = experiment: cells; details: Homo sapiens
MCF7 [9] = experiment: cells; details: Homo sapiens
MDA-MB-436 [10] = experiment: Antiproliferative activity against human MDA-MB-436 cells assessed as cell growth inhibition
MDA-MB-231 [11] = experiment: cells; details: Homo sapiens
[12] = Toxicity in BALB/c nude mouse xenografted with human MDA-MB-231 cells assessed as damage in spleen at 25 to 50 mg/kg, po for 14 days; format: organism-based; details: in vivo, 336 h, dose 25-50 mg/kg, time 14 day
[13] = Half life in Sprague-Dawley rat at 1 mg/kg, iv by LC-MS analysis; format: ADME, organism-based; details: in vivo
[14] = AUC (0 to t) in Sprague-Dawley rat at 10 mg/kg, po via gavage by LC-MS analysis; format: ADME, organism-based; parameters: dose 10 mg/kg, route po; details: in vivo
[15] = target: Mitogen-activated protein kinase kinase kinase 11 (Homo sapiens, UniProt Q16584); experiment: Inhibition of MLK3 (unknown origin) by Z'-Lyte kinase assay
[16] = Toxicity in BALB/c nude mouse xenografted with human MDA-MB-231 cells assessed as change in body weight at 25 to 50 mg/kg, po for 14 days; format: organism-based; details: in vivo, 336 h, dose 25-50 mg/kg, time 14 day
[17] = Toxicity in BALB/c nude mouse xenografted with human MDA-MB-231 cells assessed as damage in kidney at 25 to 50 mg/kg, po for 14 days; format: organism-based; details: in vivo, 336 h, dose 25-50 mg/kg, time 14 day
[18] = target: Vascular endothelial growth factor receptor 3 (Homo sapiens, UniProt P35916); experiment: Inhibition of VEGFR3 (unknown origin) by Z'-Lyte kinase assay
[19] = target: Poly [ADP-ribose] polymerase 2 (Homo sapiens, UniProt Q9UGN5); experiment: Inhibition of PARP2 (unknown origin)
[20] = Half life in Sprague-Dawley rat at 10 mg/kg, po via gavage by LC-MS analysis; format: ADME, organism-based; details: in vivo
[21] = target: Vascular endothelial growth factor receptor 1 (Homo sapiens, UniProt P17948); experiment: Inhibition of VEGFR1 (unknown origin) by Z'-Lyte kinase assay
[22] = Apparent volume of distribution in Sprague-Dawley rat at 1 mg/kg, iv by LC-MS analysis; format: ADME, organism-based; details: in vivo, read-out: Vz
[23] = target: T2, Serine/threonine-protein kinase TAO2 (Homo sapiens, UniProt Q9UL54); experiment: Inhibition of TAO2 (unknown origin) by Z'-Lyte kinase assay
T2 sequence (Q9UL54 whole entry): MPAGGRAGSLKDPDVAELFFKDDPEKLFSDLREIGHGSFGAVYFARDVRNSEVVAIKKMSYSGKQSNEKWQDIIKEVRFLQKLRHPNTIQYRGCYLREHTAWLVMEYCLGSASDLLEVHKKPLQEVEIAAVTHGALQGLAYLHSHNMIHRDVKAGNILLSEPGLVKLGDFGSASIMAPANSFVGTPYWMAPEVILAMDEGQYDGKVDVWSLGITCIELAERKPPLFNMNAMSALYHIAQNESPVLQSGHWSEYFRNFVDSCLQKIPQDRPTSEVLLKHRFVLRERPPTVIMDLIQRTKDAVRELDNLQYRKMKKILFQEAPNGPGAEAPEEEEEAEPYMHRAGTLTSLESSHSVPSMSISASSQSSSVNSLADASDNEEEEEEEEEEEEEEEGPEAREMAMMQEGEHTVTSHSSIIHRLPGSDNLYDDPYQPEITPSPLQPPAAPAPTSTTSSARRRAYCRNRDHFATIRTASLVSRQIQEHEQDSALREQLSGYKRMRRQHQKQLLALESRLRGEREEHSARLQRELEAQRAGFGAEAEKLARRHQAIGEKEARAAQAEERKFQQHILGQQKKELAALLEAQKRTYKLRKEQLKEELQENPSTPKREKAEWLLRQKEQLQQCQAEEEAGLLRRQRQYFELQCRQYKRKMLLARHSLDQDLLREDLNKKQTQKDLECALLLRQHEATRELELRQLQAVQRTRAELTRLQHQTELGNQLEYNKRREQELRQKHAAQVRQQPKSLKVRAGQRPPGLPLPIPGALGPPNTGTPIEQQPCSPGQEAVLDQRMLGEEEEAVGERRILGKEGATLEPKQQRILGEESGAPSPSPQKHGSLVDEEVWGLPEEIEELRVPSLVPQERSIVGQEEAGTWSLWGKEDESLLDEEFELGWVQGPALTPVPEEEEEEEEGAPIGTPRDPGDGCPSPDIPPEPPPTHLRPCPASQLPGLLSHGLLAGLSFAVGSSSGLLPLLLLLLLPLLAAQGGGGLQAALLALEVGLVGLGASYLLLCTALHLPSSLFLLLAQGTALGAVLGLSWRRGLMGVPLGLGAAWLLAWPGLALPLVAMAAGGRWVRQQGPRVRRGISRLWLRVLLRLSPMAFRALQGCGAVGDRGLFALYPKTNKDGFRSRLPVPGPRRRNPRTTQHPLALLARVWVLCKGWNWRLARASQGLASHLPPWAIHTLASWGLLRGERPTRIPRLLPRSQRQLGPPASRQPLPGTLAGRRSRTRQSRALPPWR

[24] = Toxicity in BALB/c nude mouse xenografted with human MDA-MB-231 cells assessed as damage in heart at 25 to 50 mg/kg, po for 14 days; format: organism-based; details: in vivo, 336 h, dose 25-50 mg/kg, time 14 day
[25] = Toxicity in BALB/c nude mouse xenografted with human MDA-MB-231 cells assessed as damage in lungs at 25 to 50 mg/kg, po for 14 days; format: organism-based; details: in vivo, 336 h, dose 25-50 mg/kg, time 14 day
[26] = Toxicity in BALB/c nude mouse xenografted with human MDA-MB-231 cells assessed as damage in liver at 25 to 50 mg/kg, po for 14 days; format: organism-based; details: in vivo, 336 h, dose 25-50 mg/kg, time 14 day
[27] = target: Macrophage colony-stimulating factor 1 receptor (Homo sapiens, UniProt P07333); experiment: Inhibition of FMS (unknown origin) by Z'-Lyte kinase assay
[28] = target: Serine/threonine-protein kinase 16 (Homo sapiens, UniProt O75716); experiment: Inhibition of MPSK1 (unknown origin) by Z'-Lyte kinase assay
[29] = AUC (0 to infinity) in Sprague-Dawley rat at 1 mg/kg, iv by LC-MS analysis; format: ADME, organism-based; parameters: dose 1 mg/kg, route iv; details: in vivo
[30] = Cmax in Sprague-Dawley rat at 10 mg/kg, po via gavage by LC-MS analysis; format: ADME, organism-based; parameters: dose 10 mg/kg, route po; details: in vivo
[31] = AUC (0 to t) in Sprague-Dawley rat at 1 mg/kg, iv by LC-MS analysis; format: ADME, organism-based; parameters: dose 1 mg/kg, route iv; details: in vivo
[32] = AUC (0 to infinity) in Sprague-Dawley rat at 10 mg/kg, po via gavage by LC-MS analysis; format: ADME, organism-based; parameters: dose 10 mg/kg, route po; details: in vivo
[33] = Cmax in Sprague-Dawley rat at 1 mg/kg, iv by LC-MS analysis; format: ADME, organism-based; parameters: dose 1 mg/kg, route iv; details: in vivo
[34] = Clearance in Sprague-Dawley rat at 1 mg/kg, iv by LC-MS analysis; format: ADME, organism-based; details: in vivo
[35] = Oral bioavailability in Sprague-Dawley rat at 10 mg/kg administered via gavage by LC-MS analysis; format: ADME, organism-based; details: in vivo

T1 sequence (P09874 whole entry): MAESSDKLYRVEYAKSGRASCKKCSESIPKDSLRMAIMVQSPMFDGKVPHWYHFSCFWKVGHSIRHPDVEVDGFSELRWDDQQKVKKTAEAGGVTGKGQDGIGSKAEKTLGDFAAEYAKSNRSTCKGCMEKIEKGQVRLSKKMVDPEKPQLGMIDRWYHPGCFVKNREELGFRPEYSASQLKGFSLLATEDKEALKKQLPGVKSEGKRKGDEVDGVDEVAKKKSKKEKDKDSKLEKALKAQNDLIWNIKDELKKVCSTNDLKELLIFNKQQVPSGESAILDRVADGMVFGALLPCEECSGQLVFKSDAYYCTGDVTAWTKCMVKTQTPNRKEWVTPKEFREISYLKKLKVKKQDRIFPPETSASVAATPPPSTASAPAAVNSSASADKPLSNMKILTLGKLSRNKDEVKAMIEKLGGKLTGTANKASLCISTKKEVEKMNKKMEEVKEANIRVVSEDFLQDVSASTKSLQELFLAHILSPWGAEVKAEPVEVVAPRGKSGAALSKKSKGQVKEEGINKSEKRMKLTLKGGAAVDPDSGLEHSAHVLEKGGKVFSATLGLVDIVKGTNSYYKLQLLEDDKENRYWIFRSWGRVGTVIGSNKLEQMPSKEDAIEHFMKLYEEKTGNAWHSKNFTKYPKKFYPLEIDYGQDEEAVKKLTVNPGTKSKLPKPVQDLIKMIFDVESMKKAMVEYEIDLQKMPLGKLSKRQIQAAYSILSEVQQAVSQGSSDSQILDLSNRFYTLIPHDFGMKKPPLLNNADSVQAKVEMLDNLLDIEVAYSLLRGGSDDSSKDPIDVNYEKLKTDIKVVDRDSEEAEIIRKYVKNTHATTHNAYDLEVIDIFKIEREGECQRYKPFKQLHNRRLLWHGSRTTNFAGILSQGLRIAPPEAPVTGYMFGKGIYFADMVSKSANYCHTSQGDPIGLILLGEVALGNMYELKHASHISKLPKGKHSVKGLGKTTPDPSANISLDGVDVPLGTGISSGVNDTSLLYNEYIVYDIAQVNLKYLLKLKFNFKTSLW
Chain of Vascular endothelial growth factor receptor 2 (P35968 whole entry): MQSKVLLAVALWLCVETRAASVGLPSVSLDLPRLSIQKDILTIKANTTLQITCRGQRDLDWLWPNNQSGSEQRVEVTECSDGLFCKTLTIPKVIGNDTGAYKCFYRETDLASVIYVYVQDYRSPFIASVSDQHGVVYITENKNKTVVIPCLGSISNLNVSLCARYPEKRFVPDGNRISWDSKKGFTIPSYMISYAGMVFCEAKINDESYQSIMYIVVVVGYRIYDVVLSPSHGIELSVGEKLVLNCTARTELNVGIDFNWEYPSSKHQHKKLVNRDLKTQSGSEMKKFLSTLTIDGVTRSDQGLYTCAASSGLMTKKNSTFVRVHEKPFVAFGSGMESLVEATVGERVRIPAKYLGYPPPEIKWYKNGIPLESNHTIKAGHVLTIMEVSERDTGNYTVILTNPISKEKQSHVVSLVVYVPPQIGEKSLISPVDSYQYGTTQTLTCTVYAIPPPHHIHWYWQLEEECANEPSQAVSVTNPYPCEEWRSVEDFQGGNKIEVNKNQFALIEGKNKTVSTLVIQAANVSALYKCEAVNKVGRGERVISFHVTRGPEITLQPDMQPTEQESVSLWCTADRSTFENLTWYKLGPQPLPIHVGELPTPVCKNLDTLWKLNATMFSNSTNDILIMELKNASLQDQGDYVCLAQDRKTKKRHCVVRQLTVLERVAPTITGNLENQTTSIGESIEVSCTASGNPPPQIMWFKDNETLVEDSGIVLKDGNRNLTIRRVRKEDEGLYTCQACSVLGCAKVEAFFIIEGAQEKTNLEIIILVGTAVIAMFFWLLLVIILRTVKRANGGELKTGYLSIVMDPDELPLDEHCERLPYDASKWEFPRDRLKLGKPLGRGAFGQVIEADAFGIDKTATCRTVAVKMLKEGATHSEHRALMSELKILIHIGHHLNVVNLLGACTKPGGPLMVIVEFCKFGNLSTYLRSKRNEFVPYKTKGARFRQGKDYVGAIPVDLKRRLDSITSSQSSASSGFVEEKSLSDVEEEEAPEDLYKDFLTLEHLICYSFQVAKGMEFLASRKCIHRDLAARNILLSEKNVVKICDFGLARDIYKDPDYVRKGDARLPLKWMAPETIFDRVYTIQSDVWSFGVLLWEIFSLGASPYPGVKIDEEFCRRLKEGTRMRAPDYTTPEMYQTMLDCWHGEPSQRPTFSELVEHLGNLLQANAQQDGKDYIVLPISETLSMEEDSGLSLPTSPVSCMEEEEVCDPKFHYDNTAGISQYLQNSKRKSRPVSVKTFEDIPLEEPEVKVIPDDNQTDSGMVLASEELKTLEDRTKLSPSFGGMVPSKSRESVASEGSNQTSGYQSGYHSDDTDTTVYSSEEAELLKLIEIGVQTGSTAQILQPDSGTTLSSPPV
Chain of Poly [ADP-ribose] polymerase 2 (Q9UGN5 whole entry): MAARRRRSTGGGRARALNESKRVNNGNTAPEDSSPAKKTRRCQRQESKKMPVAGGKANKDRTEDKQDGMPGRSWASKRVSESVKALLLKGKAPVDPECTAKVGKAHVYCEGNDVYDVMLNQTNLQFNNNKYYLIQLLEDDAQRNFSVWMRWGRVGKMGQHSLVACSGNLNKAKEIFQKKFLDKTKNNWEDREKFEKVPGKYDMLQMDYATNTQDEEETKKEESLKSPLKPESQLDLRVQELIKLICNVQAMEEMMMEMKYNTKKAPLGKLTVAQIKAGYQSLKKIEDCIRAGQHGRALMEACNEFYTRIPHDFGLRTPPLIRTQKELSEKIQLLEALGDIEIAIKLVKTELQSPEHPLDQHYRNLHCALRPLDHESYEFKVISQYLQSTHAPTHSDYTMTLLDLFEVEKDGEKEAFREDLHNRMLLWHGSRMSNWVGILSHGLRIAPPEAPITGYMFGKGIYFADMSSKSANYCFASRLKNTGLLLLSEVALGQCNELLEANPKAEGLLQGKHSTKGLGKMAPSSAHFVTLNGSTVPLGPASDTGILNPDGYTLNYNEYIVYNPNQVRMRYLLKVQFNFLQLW
Chain of Serine/threonine-protein kinase 16 (O75716 whole entry): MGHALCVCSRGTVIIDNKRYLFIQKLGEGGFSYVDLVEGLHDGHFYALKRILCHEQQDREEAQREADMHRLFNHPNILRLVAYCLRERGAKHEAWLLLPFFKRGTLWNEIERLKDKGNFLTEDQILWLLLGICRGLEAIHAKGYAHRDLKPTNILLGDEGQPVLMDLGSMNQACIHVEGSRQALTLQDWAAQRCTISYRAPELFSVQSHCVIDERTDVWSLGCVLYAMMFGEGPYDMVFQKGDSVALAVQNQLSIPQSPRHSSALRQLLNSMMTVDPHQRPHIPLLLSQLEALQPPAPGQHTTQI
Chain of Vascular endothelial growth factor receptor 3 (P35916 whole entry): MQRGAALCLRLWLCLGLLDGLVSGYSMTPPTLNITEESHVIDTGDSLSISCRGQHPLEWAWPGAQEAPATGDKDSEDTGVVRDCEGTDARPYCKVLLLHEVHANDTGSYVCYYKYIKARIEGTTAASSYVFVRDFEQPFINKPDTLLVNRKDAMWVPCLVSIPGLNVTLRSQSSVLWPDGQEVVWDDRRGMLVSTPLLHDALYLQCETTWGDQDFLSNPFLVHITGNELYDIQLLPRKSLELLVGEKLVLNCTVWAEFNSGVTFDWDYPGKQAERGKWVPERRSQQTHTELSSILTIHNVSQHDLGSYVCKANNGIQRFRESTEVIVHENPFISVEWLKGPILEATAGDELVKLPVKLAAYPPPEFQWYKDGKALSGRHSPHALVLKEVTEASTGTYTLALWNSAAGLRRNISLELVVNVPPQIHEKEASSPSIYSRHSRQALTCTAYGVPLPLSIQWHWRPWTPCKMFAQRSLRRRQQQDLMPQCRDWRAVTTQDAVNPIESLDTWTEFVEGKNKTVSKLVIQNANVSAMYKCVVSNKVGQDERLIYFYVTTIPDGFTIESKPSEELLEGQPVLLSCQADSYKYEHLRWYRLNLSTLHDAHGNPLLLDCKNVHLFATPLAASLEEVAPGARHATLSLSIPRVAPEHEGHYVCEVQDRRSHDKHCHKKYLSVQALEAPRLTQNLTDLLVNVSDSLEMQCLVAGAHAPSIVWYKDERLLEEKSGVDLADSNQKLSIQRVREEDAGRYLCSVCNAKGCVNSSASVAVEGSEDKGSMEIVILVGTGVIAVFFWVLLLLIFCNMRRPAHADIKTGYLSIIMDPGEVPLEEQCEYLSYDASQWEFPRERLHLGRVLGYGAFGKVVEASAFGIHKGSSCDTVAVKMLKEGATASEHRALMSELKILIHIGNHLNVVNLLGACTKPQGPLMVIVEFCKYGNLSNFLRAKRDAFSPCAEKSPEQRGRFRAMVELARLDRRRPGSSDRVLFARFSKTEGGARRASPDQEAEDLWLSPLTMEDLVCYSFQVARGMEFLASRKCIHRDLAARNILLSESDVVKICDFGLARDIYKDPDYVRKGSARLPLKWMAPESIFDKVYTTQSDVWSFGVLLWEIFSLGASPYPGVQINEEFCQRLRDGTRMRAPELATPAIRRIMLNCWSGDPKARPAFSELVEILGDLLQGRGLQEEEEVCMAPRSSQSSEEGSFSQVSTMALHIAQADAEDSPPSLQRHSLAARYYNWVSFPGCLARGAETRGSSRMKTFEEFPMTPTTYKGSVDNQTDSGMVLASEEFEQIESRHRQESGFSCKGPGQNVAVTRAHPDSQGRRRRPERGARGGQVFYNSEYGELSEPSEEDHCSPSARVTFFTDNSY

Compound: CN(c1ccc(Cl)cc1)c1ccnc(Nc2ccc(-c3nc4cc(F)c(F)cc4[nH]3)cc2)n1
IC50 (MDA-MB-231 [1]): > 10000 nM
IC50 [2]: 661 nM
IC50 [3]: 427 nM
IC50 (MCF7 [4]): > 10000 nM

Compound: Cc1c2ccc(N(C)c3ccnc(Nc4ccc(-c5nc6ccccc6[nH]5)c(C(F)(F)F)c4)n3)cc2nn1C
IC50 (MDA-MB-231 [1]): > 10000 nM
IC50 [2]: > 10000 nM
IC50 [3]: 213 nM
IC50 (MCF7 [4]): > 10000 nM

Compound: COc1ccc(-c2nc3c(C(N)=O)cccc3[nH]2)cc1Nc1nccc(N(C)c2ccc3c(C)n(C)nc3c2)n1
IC50 (MDA-MB-231 [1]): > 10000 nM
IC50 [2]: 39.4 nM
IC50 [3]: 266 nM
IC50 (MCF7 [4]): > 10000 nM

Compound: Cc1c2ccc(N(C)c3ccnc(Nc4ccc(-c5ccc(-c6nc7c(C(N)=O)cccc7[nH]6)cc5)cc4)n3)cc2nn1C
IC50 (MDA-MB-231 [1]): > 10000 nM
IC50 [2]: 469 nM
IC50 [3]: 308 nM
IC50 (MCF7 [4]): > 10000 nM

Compound: Cc1cc(N(C)c2ccc3c(C)n(C)nc3c2)nc(Nc2ccc(-c3nc4c(C(N)=O)cccc4[nH]3)cc2)n1
IC50 (MDA-MB-231 [1]): > 10000 nM
IC50 [2]: 85.2 nM
IC50 [3]: > 10000 nM
IC50 (MCF7 [4]): > 10000 nM

Compound: Cc1ccc(Nc2nccc(N(C)c3ccc4c(C)n(C)nc4c3)n2)cc1-c1nc2c(C(N)=O)cccc2[nH]1
Activity [12]: Non-Toxic
half-life [13]: 1.2 h
AUC(0-t) [14]: 4900 ng·h/mL
IC50 [15]: 347 nM
Activity [16]: Non-Toxic
Activity [17]: Non-Toxic
IC50 [18]: 499 nM
IC50 [19]: 78.4 nM
half-life [20]: 1 h
IC50 [21]: 166 nM
Vd [22]: 2.2 L/kg
IC50 [23]: 689 nM
Activity [24]: Non-Toxic
Activity [25]: Non-Toxic
Activity [26]: Non-Toxic
IC50 [27]: 299 nM
IC50 [28]: 148 nM
AUC(0-inf) [29]: 821 ng·h/mL
Cmax [30]: 2430 ng/mL
AUC(0-t) [31]: 815 ng·h/mL
AUC(0-inf) [32]: 4920 ng·h/mL
Cmax [33]: 482 ng/mL
clearance [34]: 20.9 mL/min/kg
bioavailability [35]: 60.1%

Now from value to compound, other results behind:

IC50 (MDA-MB-231 [1]): > 10000 nM
IC50 [2]: 79.6 nM
IC50 [3]: > 10000 nM
IC50 (MCF7 [4]): > 10000 nM
Compound: COc1cc(N(C)c2ccc3c(C)n(C)nc3c2)nc(Nc2ccc(-c3nc4c(C(N)=O)cccc4[nH]3)cc2)n1

IC50 (MDA-MB-231 [1]): 9340 nM
IC50 [2]: 118 nM
IC50 [3]: 254 nM
IC50 (MCF7 [4]): > 10000 nM
Compound: Cc1c2ccc(N(C)c3ccnc(Nc4ccc(-c5nc6c(C(N)=O)cccc6[nH]5)cc4F)n3)cc2nn1C

IC50 (MDA-MB-231 [1]): > 10000 nM
IC50 [2]: > 10000 nM
IC50 [3]: 188 nM
IC50 (MCF7 [4]): > 10000 nM
Compound: Cc1c2ccc(N(C)c3ccnc(Nc4ccc(-c5nc6ccccc6[nH]5)c(Cl)c4)n3)cc2nn1C

IC50 (MDA-MB-231 [1]): > 10000 nM
IC50 [2]: > 10000 nM
IC50 [3]: 728 nM
IC50 (MCF7 [4]): > 10000 nM
Compound: CN(c1ccc(N2CCOCC2)c(F)c1)c1ccnc(Nc2ccc(C(=O)Nc3nc4ccccc4[nH]3)cc2)n1

inhibition [5]: Active
IC50 (MDA-MB-436 [6]): > 10000 nM
IC50 (HCC1937 [7]): 6510 nM
IC50 (MDA-MB-231 [1]): > 10000 nM
IC50 (HCC1937 [8]): > 10000 nM
IC50 (MCF7 [9]): > 10000 nM
IC50 (MDA-MB-436 [10]): 9000 nM
IC50 (MCF7 [4]): > 10000 nM
IC50 (MDA-MB-231 [11]): > 10000 nM
Compound: O=C(c1cc(Cc2n[nH]c(=O)c3ccccc23)ccc1F)N1CCN(C(=O)C2CC2)CC1 [OLAPARIB]
IC50 (HUVEC): 4600 nM

IC50 (MDA-MB-231 [1]): 9720 nM
IC50 [2]: 87 nM
IC50 [3]: > 10000 nM
IC50 (MCF7 [4]): 8930 nM
Compound: CN(c1ccc(N2CCOCC2)cc1)c1ccnc(Nc2ccc(-c3nc4c(C(N)=O)cccc4[nH]3)cc2)n1

IC50 (MDA-MB-231 [1]): 8910 nM
IC50 [2]: 150 nM
IC50 [3]: 235 nM
IC50 (MCF7 [4]): > 10000 nM
Compound: Cc1cc(Nc2nccc(N(C)c3ccc4c(C)n(C)nc4c3)n2)cnc1-c1nc2c(C(N)=O)cccc2[nH]1

IC50 (MDA-MB-231 [1]): 2300 nM
IC50 [2]: 647 nM
IC50 [3]: 190 nM
IC50 (MCF7 [4]): 7200 nM
Compound: Cc1c2ccc(N(C)c3ccnc(Nc4cccc(-c5nc6cc(F)c(F)cc6[nH]5)c4)n3)cc2nn1C
